Experimental data taken from ChEMBL document CHEMBL1151002, “Potent, selective, water-soluble benzodiazepine-based CCKB receptor antagonists that contain lipophilic carboxylate surrogates” (Bioorg Med Chem Lett, 1995).
In brackets after ≈: the same amount, converted by molar mass.

Columns and labels:
[1] = Log D is the log of the ratio of concentrations in each phase obtained from partitioning between octanol and 100 mM KH2PO4 buffer at pH 7.4.; type: physicochemical; details: octanol/100 mM KH2PO4 buffer
[2] = Solubility at a pH 7.4; type: physicochemical; details: buffer, read-out: S
[3] = Ratio between CCKB and CCKA receptor binding affinity was measured by displacement of [125I]CCK from guinea pig cortical membranes and rat pancreatic tissues respectively
[4] = Oral bioavailability in rat; type: ADME, organism-based; details: in vivo, read-out: Bioavailabiility
[5] = test system: Rattus norvegicus; assay: Compound was evaluated for its penetration into blood-brain barrier measured by its level in rat brain after an intravenous dose of 3 mg/kg after 1 min; type: functional, organism-based; set-up: dose 3 mg/kg
[6] = test system: Rattus norvegicus; assay: Compound was evaluated for its penetration into blood-brain barrier measured by its level in rat brain after an intravenous dose of 3 mg/kg after 30 min; type: functional, organism-based; set-up: dose 3 mg/kg
[7] = test system: Rattus norvegicus; assay: Compound was evaluated for its penetration into blood-brain barrier measured by its level in rat brain after an intravenous dose of 3 mg/kg after 10 min; type: functional, organism-based; set-up: dose 3 mg/kg
[8] = organism: Rattus norvegicus; assay: In vitro antagonistic activity for single-cell firing in a slice preparation of the rat ventromedial hyphalamic nucleus; type: functional
[9] = Compound was evaluated for its solubility at a pH 7.4; type: ADME; details: buffer

Row | Compound | logD [1] | solubility [2] [µg/mL] | Selectivity [3] | also measured
1 | Cc1cccc(NC(=O)N[C@@H]2N=C(C3CCCCC3)c3ccccc3N(C)C2=O)c1 | > 4 | < 0.01 | 6500 | –
2 | CN1C(=O)C(NC(=O)Nc2cccc(C(=O)O)c2)N=C(C2CCCCC2)c2ccccc21 (stereo not given) | 0.89 | 1050 (≈ 2420 µM) | 2 | –
3 | CC(C)S(=O)(=O)NC(=O)c1cccc(NC(=O)NC2N=C(C3CCCCC3)c3ccccc3N(C)C2=O)c1 (stereo not given) | 0.85 | 740 (≈ 1370 µM) | – | –
4 | CC(C)S(=O)(=O)NC(=O)c1cccc(NC(=O)N[C@@H]2N=C(C3CCCCC3)c3ccccc3N(C)C2=O)c1 | – | 1160 (≈ 2150 µM) | – | –
5 | CC(=O)NS(=O)(=O)c1cccc(NC(=O)NC2N=C(C3CCCCC3)c3ccccc3N(C)C2=O)c1 (stereo not given) | 0.72 | 260 (≈ 508 µM) | 53 | –
6 | CN1C(=O)C(NC(=O)Nc2cccc(C(=O)NS(C)(=O)=O)c2)N=C(C2CCCCC2)c2ccccc21 (stereo not given) | 0.34 | – | – | solubility [9]: 1300 µg/mL (≈ 2540 µM); Level [5]: 836 ng/g; Level [6]: 91 ng/g; Level [7]: 344 ng/g

The next lines start with results.

Row | logD [1] | solubility [2] [µg/mL] | Selectivity [3] | Compound | also measured
7 | – | 370 (≈ 645 µM) | > 8000 | CN1C(=O)[C@H](NC(=O)Nc2cccc(C(=O)NS(=O)(=O)c3ccccc3)c2)N=C(C2CCCCC2)c2ccccc21 | –
8 | 1.78 | 50 (≈ 87.2 µM) | – | CN1C(=O)C(NC(=O)Nc2cccc(S(=O)(=O)NC(=O)c3ccccc3)c2)N=C(C2CCCCC2)c2ccccc21 (stereo not given) | bioavailability [4]: 14%; Level [5]: 222 ng/g; Level [6]: 72 ng/g; Level [7]: 120 ng/g; Kb [8]: 1.2 nM
9 | 1.42 | – | 19 | CN1C(=O)C(NC(=O)Nc2cccc(C(=O)NS(=O)(=O)c3ccccc3)c2)N=C(C2CCCCC2)c2ccccc21 (stereo not given) | –
10 | 2 | 410 (≈ 698 µM) | – | Cc1ccccc1S(=O)(=O)NC(=O)c1cccc(NC(=O)N[C@@H]2N=C(C3CCCCC3)c3ccccc3N(C)C2=O)c1 | –
